Measured values taken from patent US20250011869A1, “TLR3 INHIBITORS FOR USE IN THE TREATMENT OF DISEASES ASSOCIATED WITH CARDIOVASCULAR CALCIFICATION” (priority 2021, published 2025).

Legend:
VICs [1] = test: RNA sequencing of VICs vs human osteoblasts; assay type: cell-based; details: Poly(I:C) 20 μg/mL, 72 h
Description: Total-RNA was isolated from five samples (VICs, cultured in calcification media and treated either 72 h with 20 μg/ml Poly(I:C), untreated controls, as well as human osteoblasts) and submitted to transcriptome analysis for the purpose of gene-expression profiling. For the RNA sequencing analysis in FIG. 5 the 2100 Bioanalyzer and RNA 6000 Nano LabChip kits (Agilent Technologies) was used to check for RNA integrity (all RINs >9). The TruSeq® Stranded mRNA HT technology was used for library preparation according to manufacturer's protocol and Illumina NextSeq® 500 1×75 bp single end sequencing was performed at the IMGM® laboratories (Martinsried, Germany). The RNA sequencing analysis in Figure S3 was performed at Novogene (UK) Co. using the NovaSeq 600 PE150.
All primary sequencing analyses were performed using CLC Genomics Workbench (9.5.3) including sequence QC and mapping to the human reference genome (GRCh38.p7). Differentially expression analyses were performed on raw count data and using an exact test based on negative binomial distribution (edgeR version 3.4.0) 10. P-values were adjusted according to the Benjamini-Hochberg method based on the false discovery rate (FDR). Only genes with at least four-fold change were considered. Over representation analysis for gene ontology and pathways on differentially expressed genes were performed using DAVID (6.8) 11 and ConsensusPathDB^12. Gene set enrichment analysis on log 2-fold change pre-ranked data was performed using GSEA software^13 and gene sets for biological hallmark processes and pathways (MSigDB), calcification signature as derived from respective literature, and signatures of differentially expressed genes for calcific aortic valve stenosis versus control^14 (reanalyzed data from GSE12644 using R package limma^15 including genes with more than two-fold change and FDR <0.05). Heat maps were generated using Genesis version 1.8.116 for log 2-fold change data.

VICs [2] = test: Calcification assay of VICs in osteogenic medium (Alizarin Red S, alkaline phosphatase); assay type: cell-based, human; details: VICs in osteoblastic medium
Description: For functional evaluation of osteoblastic activity, VICs were subjected to a calcification assay. Cells were cultured in osteogenic medium including 10 mmol/L beta-glycerophosphate, 10 nmol/L vitamin D3, and 10 nmol/L dexamethasone as described previously^4. The medium was changed every three days. Subsequently, supernatant was analyzed for alkaline phosphatase activity using the commercially available alkaline phosphatase assay kit (Abcam, Cambridge, UK). After careful rinsing with PBS, cells were fixed with 4% paraformaldehyde, washed with distilled water and Alizarin Red S staining solution (Alfa Aesar, Haverhill, MA) was added upon the fixed cells for 20 minutes at room temperature (RT). Imaging of the staining was performed using a Zeiss Axioplan 2 microscope (Zeiss, Oberkochen, Germany). Images were processed using Adobe Photoshop CS5.1 for Mac (Adobe Systems Inc., San Jose, CA, USA) and analyzed with ImageJ software (National Institutes of Health, Bethesda, […]).

TLR3 and IFN-β = test: RT-PCR of human dermal fibroblasts (wild type, empty vector control, Tlr3−/− CRISPR); assay type: cell-based; details: 5 μg/ml, 6 h
Excerpt: (§1) Human dermal fibroblasts WT and Tlr3^−/− were kindly provided by the Jean-Laurent Casanova group and cultivated in DMEM with 4.5 g/L glucose (Lonza, Basel, Switzerland), 10% FCS (Sigma, St. Louis, MO), penicillin, streptomycin and L-Glutamine. Human dermal fibroblasts CTR cells were provided by the Villunger group and cultivated in DMEM with 4.5 g/L glucose (Lonza, Basel, Switzerland), 10% FCS (Sigma, St. Louis, MO), penicillin, streptomycin and L-Glutamine.
(§2) All cells were cultivated under standard conditions (37° C., supplied with 5% CO2). Passaging of the cells was performed at 70-90% confluency, and cells were only used until passage 7 as described previously^6. Polyinosinic: polycytidylic acid (Poly(I:C); Invivogen, San Diego, CA) was used to stimulate cells at a concentration of either 20 μg/mL or 5 μg/ml, depending on the assay. For blockade of TLR3, the commercially available dsRNA/TLR3 inhibitor ((R)-2-(3-Chloro-6-fluorobenzo [b] thiophene-2-carboxamido)-3-phenyl-propanoic acid) was used (Merck, Darmstadt, Germany) at a concentration of 1 μg/ml as described previously^1,7. LY294002 (Invivogen, San Diego, CA), a PI3K inhibitor, was used at a concentration of 10 μM. For blockade of IFNAR1, a specific blocking antibody (Invitrogen, Carlsbad, CA) was used at a concentration of 4 μg/ml. A stable HEK (human embryonic kidney) reporter cell line (TLR3/ISRE LUCPorter; Imgenex, USA) was purchased for luminometer assay experiments. Cells were cultivated according to the manufacturer's protocol in DMEM with 4.5 g/L glucose (Lonza, Switzerland), 10% FCS (Sigma, St. Louis, MO), penicillin/streptomycin, and 4 mM L-glutamine and […] puromycin (Gibco, USA) as selection agent. Reporter experiments were performed as described previously^8. For the protein expression SF21 cells were purchased at ThermoFisher (#11497013) and cultivated in Gibco™ Sf-900™ SFM supplemented with penicillin, streptomycin and L-Glutamine. In vitro stretch was applied using a Flexcell bioreactor (Flexcell International Corporation, Burlington, NC) applying 15% cyclic strain as described previously^9.
RT-PCR was performed as described previously^17. Total RNA was extracted from homogenized tissue or cell lysates using the Total RNA Miniprep Kit (New England BioLabs, Frankfurt, Germany) according to the manufacturer's instructions. We performed the PCR reaction in a final volume of 12.5 μL containing 2.5 μL of cDNA, 6.25 μL of Master Mix, 1 μL of fluorogenic hybridization probe, 10 μM of primer and 2.75 μL of distilled water. […] The result for the relative gene expression was calculated by the 2-DDCt method. Mean Ct values were calculated from double determinations and samples were considered negative if the Ct values exceeded 4017. […]

TLR3 = TLR3 expression in valvular interstitial cells (immunoblot / RT-qPCR); assay type: cell-based, human; details: RT-qPCR; Poly(I:C) 2, 4, 6, 24 and 48 h (FIG. 4A)
Description: (§3) Valvular interstitial cells from patients undergoing aortic valve replacement or cardiac transplantation were isolated via collagen digestion as described previously^6. Valves were rinsed in EBSS and subsequently subjected to collagenase digestion (Sigma, St. Louis, MO; 2.5 mg/mL in M199) for 30 minutes at 37° C. Thereafter, tissue samples were vortexed and supernatant containing endothelial cells was removed. Again, collagenase was added to the remaining valve tissue (1 mg/mL) for 3 h at 37° C. For mechanical disintegration of the tissue, vortexing and repeated aspiration via a pipette was performed. The supernatant was transferred into a new tube and subjected to centrifugation (300 g for 8 minutes at 4° C.). Subsequently, cells were resuspended in M199 medium containing 10% fetal calve serum, penicillin, streptomycin, L-Glutamine and amphotericin B (2.5 mg/L).
(§4) All cells were cultivated under standard conditions (37° C., supplied with 5% CO2). Passaging of the cells was performed at 70-90% confluency, and cells were only used until passage 7 as described previously^6. […]
(§5) RT-PCR was performed as described previously^17. […] The result for the relative gene expression was calculated by the 2-DDCt method. Mean Ct values were calculated from double determinations and samples were considered negative if the Ct values exceeded 4017. […]

TLR3-RUNX2 pathway = test: Immunoblot of human dermal fibroblasts for the TLR3-RUNX2 pathway; assay type: cell-based; details: wild type and empty vector control cells; 5 μg/ml, 6 h
Excerpt: as §1, §2
Protein from tissue or cell lysates was extracted using a Radioimmunoprecipitation Assay Lysis Puffer (150 mM NaCl, 1% NP-40, 0.5% Sodium Deoxycholate, 0.1% SDS and 50 mM Tris (pH 8,0)). For the extraction of nuclear or cytosolic proteins the NE-PER™ Nuclear and Cytoplasmic Extraction Reagents Kit (ThermoScientific, #78835) was used.
Protein was thereafter separated on SDS-polyacrylamide gels of different percentages and transferred to nitrocellulose membranes as described previously^18. After blocking with either 5% BSA in TBS 0.1% Tween, 5% milk in TBS 0.1% Tween or StartingBlock™ (TBS) Blocking buffer (ThermoScientific, #37542) membranes were incubated with primary antibodies listed in Table 2.

IFN-β = IFN-β expression in VICs (RT-qPCR); assay type: cell-based, human; details: Poly(I:C) 2, 4, 6, 24 and 48 h (FIG. 4B)
Description: as §3, §4, §5

Polyinosinic: polycytidylic acid [Poly(I:C)]
transcriptome of treated VICs (VICs [1]): induces an osteoblastic transcriptome | genes downregulated in both Poly(I:C)-treated VICs and human osteoblasts compared to untreated VICs (VICs [1]; at least four-fold change): 199 genes | genes upregulated in both Poly(I:C)-treated VICs and human osteoblasts compared to untreated VICs (VICs [1]; at least four-fold change): 118 genes | calcification / production of calcific nodules (VICs [2]; Poly(I:C) 20 μg/mL or inhibitor 26 μM, Alizarin Red S): enhanced the production of calcific nodules | alkaline phosphatase (ALP) activity (VICs [2]; supernatant): increased the activity | transcription of TLR3 and IFN-β (TLR3 and IFN-β; Tlr3−/− fibroblasts): no response | transcription of TLR3 and IFN-β (TLR3 and IFN-β; wild type and empty vector control fibroblasts): induced transcription of TLR3 and IFN-β | TLR3 expression in VICs (TLR3): increased expression | IFNAR1 level (TLR3-RUNX2 pathway): upregulation of IFNAR1 | levels of osteoblastic transcription factor RUNX2 (TLR3-RUNX2 pathway): increased levels | phosphorylation of IRF3 (TLR3-RUNX2 pathway): phosphorylation of IRF3 | IFN-β expression in VICs (IFN-β): increased expression
